# Reference: patent US20030064967A1 (priority 2001, published 2003)
# Several values for one entry are separate records, joined by “and”; a condition that tells them apart may be missing. Equal values may be shown once.
# How the values were obtained:
# [1] = tested on: hypercholesterolemic hamsters; type: in vivo
# Experimental: The following assay was conducted to HDL elevation in hamsters. Male Golden Syrian hamsters weighing 110-120 g were obtained from Charles River Laboratories (Wilmington, Mass.). Hamsters were housed individually with wood chip bedding and soft nesting material with lights on a 6 A.M. and off at 6 p.m. Upon arrival the hamsters were acclimated for three days on standard rodent chow and water (Purina rodent chow 5001) ad libitum. Prior to dosing, the hamsters were made hypercholesterolemic by feeding them a powdered diet supplemented with 0.5% cholesterol and 10% coconut oil (Harlan Teklad diet #97235) for one week. Water was added to the powdered chow to form a paste and the chow paste rolled into balls with each animal receiving 20 g of chow paste per day in stainless steel bowls. Chow intake was recorded daily. Body weights were recorded after one week and at the end of the end of the study. Hamsters were distributed into treatment groups after the one-week pretreatment period such that each group had similar average body weights.
# Compounds were added to a high cholesterol chow paste and administered as an admixture at the same time each morning for two weeks. At the end of the treatment period the hamsters were fasted in the late afternoon on the day prior to blood collection. Fasting was achieved by transferring the hamsters to clean cages and removing chow stored in cheek pouches. Hamsters were anesthetized with ketamine/rompun solution. When unresponsive to toe pinch and still respiring, blood was collected via cardiac puncture from which plasma was separated and frozen at −80° C.
# Lipoproteins were isolated from whole plasma by Fast Phase Liquid Chromatography (FPLC). Cholesterol and triglyceride concentrations in the different lipoprotein fractions were determined by enzymatic methods using a CX-5 chemical analyzer and standard Beckman reagents.
# A Dunnetts test was used to compare the experimental and control groups. P<0.05: was considered significant.
# [2] = tested on: human apo A-1 transgenic mice; experiment: HDL cholesterol and human apoAI levels in human apo-A1 transgenic mice (InVivo II); type: in vivo
# Experimental: The following assay was conducted to evaluate the effect of Compound A on HDL cholesterol levels in Human apo-A1 transgenic mice. Six-eight week old male human apo A-1 transgenic mice (catolog number JR 1927) were obtained from Jackson Labs. Upon arrival the mice were acclimated for three days on standard rodent diet and water ad libitum. Mice were then given a diet supplemented with 1.25% cholesterol, 7.5% cocoa butter and 0.5% sodium cholate for two weeks. Compound A was administered to the animals by gavage in methylcellulose at a dose of 150 mg/kg/d for two weeks concomitant with the high fat diet. At the end of the treatment period the mice were fasted overnight and then euthanized by CO2 inhalation. Blood was collected by cardiac puncture. Plasma was fractionated by fast phase liquid chromatography and cholesterol in the different lipoprotein fractions determined by an enzymatic assay. An ELISA was completed shoing an increase of h-apoAI of 65%.
# [3] = tested on: HepG2 cells; experiment: Cell culture assay and ELISA for apoAI HDL increase in HepG2 cells; type: cell-based, human
# Experimental: A cell culture assay and ELISA was conducted to measure apoAi HDL increase in HepG2 cells were obtained from the American Type Culture Collection (Rockville, Md.). Fetal bovine serum (FBS) was purchased from Gibco Laboratories. Cells were cultured in minimum essential medium (MEM) containing 10% FBS, and 100 μg/mL of streptomycin, 100 unit/mL of penicillin, and 4 mM of glutamine (Gibco/BRL). Cells were grown for 2 days till they are 80% confluent in 6-well, or 12-well plates before studies. In all cases medium was changed every other day. To measure apoAI, 96-well microtiter plates were coated with a 1:1000 diluted mixture of three monoclonal antibodies against human apoAI (A05, A17, and A44) for 2 h and incubated in succession with HDL3 (0 to 15 ng/well), sheep polyclonal anti-apoAI serum (Boehringer Mannheim), alkaline phosphatase-labeled rabbit anti-sheep (Cappel), and p-nitrophenyl phosphate (1 mg/mL in 10 mmol/L ethanolamine, 0.5 mmol/L MgCl2, pH 9.5), for 2, 1 and 1 h respectively at 37° C. The plates were washed three times between different incubations. The absorbance at 405 nm was determined by using a Bio-Rad model 550 microplate reader (Bio-Rad).
# [4] = tested on: HepG2 cells; experiment: Uptake of 3[H]cholesteryl hexadecyl ether-labeled HDL in HepG2 cells; type: cell-based; conditions: for % 3[H]-CE uptake: 12.5 μM compound, 20-50 μg/mL 3[H]-CE HDL, 3.5 h, 37° C.; for clearance / selective uptake of cholesteryl ester: HepG2 cells
# Experimental: An in vitro assay was conducted to measure the uptake of ^3[H]cholesteryl Hexadecyl Ether-labeled HDL in HepG2 cells. ^3[H]cholesteryl Hexadecyl Ether-labeled HDL was prepared as described by Rodrigueza et al. (Rodrigueza W. V. et al. (1999) J. Biol. Chem. 274:20344-20350). 40 μCi of ^3[H]hexadecyl ether (40-60 Ci/mmol, NEN life Sciences Products) were incubated with 5 mg of HDL3 and 240 mg of heat-inactivated lipoprotein-deficient plasma, 0.01% aprotinin in a polypropylene tube sealed with nitrogen gas for 40 h at 37° C. according to the method of Terpstra et al . ^3[H]-CE enriched HDL was re-isolated by flotation ultracentrifugation and dialyzed against phosphate-buffered saline (PBS). To perform CE uptake studies, HepG2 cells, seeded in 6 or 12 well plates were grown for 2 days till 80% confluent and, then treated with compounds in 1% RSA-DMEM medium for 24 h. The next day, cells were treated with 12.5 μM compounds and 20-50 μg/mL of ^3[H]-CE HDL for 3.5 h at 37° C. After incubation, cells were washed 4 times with PBS/BSA and 2 times with PBS, followed by addition of 0.1 N NAOH. Cells were collected, and radioactivity was measured in counts per minute and expressed as percent of ^3[H]-CE delivered to cells.
# [5] = tested on: HepG2 cells; experiment: Internalization and degradation of 125I-HDL3 by HepG2 cells; type: cell-based
# Experimental: In another aspect of the invention, compounds that increase the levels of plasma HDL holoproteins can be selected using the following process. First, the compound is added to a hepatic model, preferably hepatic cells, more preferably HepG2 cells. Labeled apoAI-HDL, preferably a radioactive isotope label, more preferably ^125I, in the presence or absence of compounds is then added to the cells. The […] labeled apoAI-HDL in the conditioned medium represents degraded labeled apoAI-HDL. After washing and detaching, cells are centrifuged. Labeled apoAI-HDL in the cellular fraction represents internalized HDL holoprotein; whereas, label in the supernatant represents cell surface bound apoAI-HDL that has been dissociated. Increased amounts of labeled HDL in cells treated with compounds versus cells not treated with compounds indicates increased degradation, internalization, or binding to the cell surface. Compounds are selected which […] the amount of apoAI-HDL label in the cellular fraction of the cells contacted with a test compound compared to the amount of label in the cellular fraction of the cells not contacted with the test compound.
# In another aspect of the invention, compounds that increase the levels of plasma HDLc can be selected by contacting a hepatic model, preferably hepatic cells, more preferably HepG2 cells with test compounds. Labeled apoAI-HDL, preferably a radioactive isotope label, more preferably ^125I, in the presence or absence of compounds is then added to the cells. Label in the conditioned medium represents degraded labeled-HDL. After washing and detaching, cells are centrifuged. Label in the cellular fraction represents internalized HDL holoprotein; whereas, label in the supernatant represents cell surface bound apoAI-HDL that has been dissociated. Increased amounts of label in cells treated with compounds versus cells not treated with compounds indicates increased degradation, internalization, or binding of apoAI-HDL to the cell surface. […]
# [6] = type: in vivo; conditions: one study; 150 mg/kg/d by gavage in methylcellulose
# [7] = tested on: apoAI; experiment: Synthesis of apoAI
structure (smiles),measurement,setting,value
"CC(C)(Sc1cc(C(C)(C)C)c(O)c(C(C)(C)C)c1)Sc1cc(C(C)(C)C)c(OC(=O)CCCC(=O)O)c(C(C)(C)C)c1 [Compound A, Pentanedioic Acid, mono[4-[[1-[[3,5-bis(1,1-dimethylethyl)-4-hydroxyphenyl]thio]-1-methylethyl]thio]-2,6-bis(1,1-dimethylethyl)phenyl]ester]","HDLc elevation, range of three experiments","[1]; 150 mg/kg/d, two weeks",5-44%
same,body weight,"[1]; 150 mg/kg/d, two weeks",all animals gained weight
same,tolerability,"[1]; 150 mg/kg/d, two weeks",well tolerated
same,HDLc elevation compared to untreated controls,"[1]; average of three experiments, 150 mg/kg/d, two weeks, in chow",22%
same,LDLc reduction compared to controls,"[1]; average, n=3, 150 mg/kg/d, two weeks",29%
same,increase in HDL cholesterol levels (FIG. 1),[1]; hypercholesterolemic hamsters,24%
same,VLDL cholesterol reduction compared to controls,"[1]; n=3, 150 mg/kg/d, two weeks",42%
same,"VLDL cholesterol reduction, range","[1]; n=3, 150 mg/kg/d, two weeks",22-53%
same,triglycerides reduction compared to controls,"[1]; n=3, 150 mg/kg/d, two weeks",24%
same,"triglycerides reduction, range","[1]; n=3, 150 mg/kg/d, two weeks",7-33%
same,increase of human apoAI (ELISA),"[2]; 150 mg/kg/d by gavage, two weeks, high fat diet",64% and 65%
same,increase in HDL cholesterol (FIG. 7),[2]; hypercholesterolemic human apo-AI transgenic mice,71%
same,% increase apoAI HDL,[3],33%
same,% 3[H]-CE uptake,[4],42%
same,clearance / selective uptake of cholesteryl ester,[4],enhance the clearance of cholesteryl ester
same,degradation of 125I-HDL3,[5],decreases degradation
same,internalization of 125I-HDL3 / HDL holoprotein uptake,[5],decreases internalization
"CC(C)(Sc1cc(C(C)(C)C)c(O)c(C(C)(C)C)c1)Sc1cc(C(C)(C)C)c(OC(=O)CCCOS(=O)(=O)[O-])c(C(C)(C)C)c1.[Na+] [Compound B, 4-[4-[1-[[3,5-bis(1,1-dimethylethyl)-4-hydroxyphenyl]thio]-1-methylethyl]-thio-2,6-bis-(1,1-dimethyl-ethyl)phenoxy]-4-oxo-1-butyl Sodium Sulfate]",% increase apoAI HDL,[3],26%
same,% 3[H]-CE uptake,[4],44%
same,clearance / selective uptake of cholesteryl ester,[4],enhance the clearance of cholesteryl ester
same,mortality,[6],all of the mice died
"CC(C)(Sc1cc(C(C)(C)C)c(O)c(C(C)(C)C)c1)Sc1cc(C(C)(C)C)c(OC(=O)COCC(=O)O)c(C(C)(C)C)c1 [Compound C, Carboxymethoxyacetic Acid, mono[4-[1-[[3,5-bis(1,1-dimethylethyl)-4-hydroxyphenyl]thio]-1-methyl-ethyl]-thio-2,6-bis(1,1-dimethylethyl)phenyl]ester]",% increase apoAI HDL,[3],47%
"COC(=O)CCCC(=O)Oc1c(C(C)(C)C)cc(SC(C)(C)Sc2cc(C(C)(C)C)c(O)c(C(C)(C)C)c2)cc1C(C)(C)C [Compound D, Pentanedioic Acid, [4-[1-[[3,5-bis(1,1-dimethylethyl)-4-hydroxyphenyl]thio]-1-methylethyl]-thio-2,6-bis(1,1-dimethylethyl)phenyl], Methyl Ester]",% increase apoAI HDL,[3],27%
"CC(C)(Sc1cc(C(C)(C)C)c(O)c(C(C)(C)C)c1)Sc1cc(C(C)(C)C)c(O)c(C(C)(C)C)c1 [Probucol, 4,4′-(isopropylidenedithio) bis(2,6-di-tert-butylphenol), reference compound]",% increase apoAI HDL,[3],−21%
same,% 3[H]-CE uptake,[4],13%
same,internalization of 125I-HDL3 / HDL holoprotein uptake,[5],reduced HDL holoprotein uptake
same,effect on synthesis of apoAI,[7],reduced the synthesis of apoAI
